Data set [1] concerns JCPyV. Details: method as in PMID 26600871, PMID 21402853. The following applies: relative to cidofovir; cited from earlier work.
For data set [2], the system named is SVG-A cells. In words: Viral ToxGlo toxicity assay in SVG-A cells. In kind it is cell-based, human. As for the experimental part: (§1) SVG-A cells were plated at 5,000 cells per well, and NHAs were plated at 10,000 per well in a Corning 96-well tissue culture-treated plate. The following day, the cells were treated with a twofold dilution series of either quercetin, myricetin, or fisetin, ranging from 20 to 0.15625 µM, in phenol-free media. SVG-A cells were incubated with drug for 72 h in the incubator at 37°C with 5% CO2. NHA cells were incubated with drug for 120 h at 37°C with 5% CO2 to match the exposure times for infection. After incubation, a luciferase-based Viral ToxGlo Assay (Promega) was added to each well according to the manufacturer’s protocol. Viral ToxGlo measures the amount of ATP activity present through a luminescent signal. The cells were incubated with Viral ToxGlo lytic reagent for 10 min at 37°C with 5% CO2. Lysed cell suspension was then transferred to an opaque plate, and luciferase activity was read on the Glomax Multi-detection System (Promega, 0.5 s integration time) and normalized to a vehicle control.

In data set [3] the test system is NHA cells. In words: Viral ToxGlo toxicity assay in NHA cells. In kind it is cell-based, human. The protocol:
as §1

For data set [4], the system named is JCPyV. In words: JCPyV infection assay in SVG-A cells (VP1 indirect immunofluorescence). The following applies: JC polyomavirus, 2 h pretreatment, MOI 10, drug maintained 72 h, normalized to DMSO. In kind it is cell-based. As for the experimental part:
(§2) SVG-A cells were plated at 5,000 cells per well, and NHAs were plated at 10,000 per well. The following day, the cells were treated with the above-described dose curve of either quercetin, fisetin, or myricetin, ranging from 10 to 0.15625 µM. A DMSO (vehicle) control that was volume matched to the highest volume of each flavonol was included. The plates were pretreated with drug for 2 h at 37°C with 5% CO2. Next, the cells were incubated in 1× MEM with purified JCPyV (MOI of 10) in the continued presence of either quercetin, myricetin, fisetin, or a DMSO vehicle control matched to the highest concentration of each flavonol. Plates were incubated for 2 h at 37°C with 5% CO2 and rocked every 15 min to ensure homogenous distribution of virus in each well. Virus-containing media were then aspirated and replaced with either quercetin, myricetin, fisetin, or a volume-matched DMSO control in complete media. SVG-A cells were incubated for 72 h in the incubator at 37°C with 5% CO2. Astrocytes were incubated for 120 h at 37°C with 5% CO2. Plates were fixed in 100% ice-cold methanol and quantified using indirect immunofluorescence staining for the late viral protein VP1.
(§3) To quantify the number of infected cells, SVG-A and NHA cells were fixed with ice-cold 100% methanol at −20°C for at least 15 min to permeabilize cells. The cells were rehydrated with 1× phosphate-buffered saline (PBS) for 15 min and rocked at room temperature. […] The cells were imaged on a Ti2-E Inverted Fluorescence Microscope (Nikon) using the 20× objective. For each plate, a random subset of 10 fields was chosen to image per well, and three wells were analyzed per condition. Images were analyzed using Elements High Content Imaging software (Nikon) to count total cells versus VP1+ cells.
(§4) A linear regression between successive points was used to calculate the half maximal inhibitory values (IC50) from the dose curves of each drug. […] Significance was calculated using Student’s two-tailed t-test in GraphPad Prism. […]

The subject of data set [5] is JCPyV. In words: JCPyV infection assay in NHA cells (VP1 indirect immunofluorescence). Format: cell-based. The following applies: JC polyomavirus, 2 h pretreatment, MOI 10, drug maintained 120 h, normalized to DMSO. The protocol:
as §2, §3, §4

Data set [6] has as its system JCPyV. In words: Infection time course in SVG-A cells. In kind it is cell-based, JC polyomavirus. The following applies: 10 µM, added at -2, 0, 2 or 24 h relative to infection, VP1+ at 72 h post-infection. The protocol: (§5) SVG-A cells were plated at 5,000 cells per well, and NHAs were plated at 10,000 per well in a Corning 96-well tissue culture-treated plate. The following day, the cells were treated at the following four time points: 2 h before infection (−2 h; pretreatment), 0 h (co-treatment at the time of infection), 2 hs after infection (post treatment), or 24 h after infection (post-treatment). At the 2-h pretreatment time point, quercetin, myricetin, fisetin, or a volume-matched DMSO control was added in complete media. For all other time points, complete media were administered as a mock treatment. The plates were incubated for 2 h at 37°C and 5% CO2. At the 0-h time point, purified JCPyV (MOI of 10) in unsupplemented media was added to each of the time points, either alone or in the presence of drug, as appropriate for each treatment condition. In the −2 h and 0 h treated wells, quercetin, myricetin, fisetin, or a volume-matched DMSO control was added as co-treatment. All plates were infected with purified JCPyV at the same time, for 2 h at 37°C and 5% CO2. At the 2-h time point, the virus was aspirated and flavonols in complete media were added to the −2, 0, and 2 h time points. Complete media without drug or vehicle control was administered to the 24-h time point. Twenty-four hours after infection, flavonols were added to the 24-h time point, in complete media. SVG-A cells were incubated at 37°C and 5% CO2 for 72 h after infection, and NHA cells were incubated at 37°C and 5% CO2 for 120 h after infection. Plates were then stained and infection was quantified via indirect immunofluorescence.
(§6) To quantify the number of infected cells, SVG-A and NHA cells were fixed with ice-cold 100% methanol at −20°C for at least 15 min to permeabilize cells. […] The cells were imaged on a Ti2-E Inverted Fluorescence Microscope (Nikon) using the 20× objective. For each plate, a random subset of 10 fields was chosen to image per well, and three wells were analyzed per condition. Images were analyzed using Elements High Content Imaging software (Nikon) to count total cells versus VP1+ cells.

For data set [7], the system named is JCPyV. In words: Infection time course in NHA cells. The following applies: added at -2, 0, 2 or 24 h relative to infection, VP1+ at 120 h post-infection. Format: cell-based, JC polyomavirus. As for the experimental part:
as §5, §6

The test system of data set [8] is JCPyV. In words: Viral spread assay in SVG-A cells. Format: cell-based, JC polyomavirus. The following applies: 10 µM added 24 h post-infection, VP1+ at 3, 6 and 9 days post-infection, vs DMSO. As for the experimental part:
(§7) For the viral spread assay, the cells were plated at a density of 5,000 cells per well for SVG-A in complete MEM, or 10,000 cells per well for NHA in complete AM, and incubated overnight at 37°C with 5% CO2. The next day, the cells were infected with purified JCPyV (MOI of 10) for 2 h to establish an infection without the presence of drugs. After infection, JCPyV media were aspirated and plates were incubated with complete media as required for each cell type. One day post-infection, the cells were incubated with the highest nontoxic dose (for SVG-A: 10 µM quercetin, 10 µM myricetin, 10 µM fisetin; for NHA: 5 µM quercetin, 10 µM myricetin, 5 µM fisetin) or a volume-matched DMSO control. Plates were incubated at 37°C with 5% CO2 and infection was measured by indirect immunofluorescence quantification at 3, 6, and 9 days post-infection in SVG-As or 5, 10, and 15 days post-infection for NHAs. At every time point, the cells were either fixed in ice-cold methanol or were supplemented with an additional 50 µL of cell media that consisted of the matched concentration of quercetin, fisetin, myricetin, or DMSO vehicle control. Cell counts were obtained by counting the total number of cells in 10 random fields per well (3 wells total per replicate) on the Ti2-E Inverted Fluorescent Microscope (Nikon).
as §3, with “rocked at room temperature. Subsequent permeabilization was conducted with incubation in 1% Triton-X (USB) for 10 min with rocking” for “rocked”

Data set [9] has as its system JCPyV. In words: Viral spread assay in NHA cells. The following applies: VP1+ at 5, 10 and 15 days post-infection, vs DMSO. Format: cell-based, JC polyomavirus. The protocol:
as §7
as §3, with “rocked at room temperature. Subsequent permeabilization was conducted with incubation in 1% Triton-X (USB) for 10 min with rocking” for “rocked”

On the set-up of data set [10]: method as in PMID 29317180. The following applies: amplification of hippocampal long-term potentiation; cited from earlier work.
On the set-up of data set [11]: method as in PMID 14980703, PMID 28528183. The following applies: U251 cells; cited from earlier work.

Here are results for four compounds from paper PMC12502592, “Therapeutic potential of flavonols in the treatment of JCPyV” (Microbiology Spectrum, 2025).

For the compound `CCCCCCCCCCCCCCCCOCCCOP(=O)(O)CO[C@H](CO)Cn1ccc(N)nc1=O` [Brincidofovir], in data set [1], the “concentration reducing JCPyV DNA copy number, fold smaller than cidofovir” value is listed as 100 ×.

For the compound `O=c1c(O)c(-c2ccc(O)c(O)c2)oc2cc(O)ccc12` [fisetin], the highest nontoxic dose in [2] (human, 72 h) is 10 µM; in data set [3] (human, 120 h) it was 5 µM. Further, the IC50 – broadly, the concentration that gives 50% inhibition – was found to be 5.76 µM in data set [4] and 3.72 µM in [5]. In addition, the “inhibition of JCPyV infection by time of addition” value (“inhibition of JCPyV infection” below) is “inhibited infection at all time points up to and including 24 h post-infection” in data set [6]; “maintained their ability to inhibit infection even when administered at 24 h post-infection” in data set [7] (5 µM). Further, the “inhibition of viral spread in established infection” value (“inhibition of viral spread” for short) in data set [8] is “inhibit viral spread in SVG-A cells at 3, 6, and 9 days post-infection”; in data set [9] (5 µM added 24 h post-infection) it was “significantly reduce JCPyV infection at all time points”. For the same compound, the “crossing of the BBB in vivo” value in data set [10] is “found to cross the BBB in vivo”.

Take `O=c1c(O)c(-c2ccc(O)c(O)c2)oc2cc(O)cc(O)c12` [quercetin]: the results for the highest nontoxic dose in data set [2] (SVG-A cells) and in data set [3] (NHA cells) were 10 µM and 5 µM, respectively. Further, the figures for the IC50 in [4] and in [5] were 6.04 µM and 2.51 µM, respectively. The “inhibition of JCPyV infection” value in data set [6] is “inhibited infection at all time points up to and including 24 h post-infection”; in [7] (5 µM), “maintained their ability to inhibit infection even when administered at 24 h post-infection”. Moreover, the “inhibition of viral spread” value in data set [8] was “inhibit viral spread in SVG-A cells at 3, 6, and 9 days post-infection”; in data set [9] (5 µM added 24 h post-infection), “significantly reduce JCPyV infection at all time points”. Besides, in data set [11], the “crossing of the BBB in in vitro models” value was “up to 65%”.

For `O=c1c(O)c(-c2cc(O)c(O)c(O)c2)oc2cc(O)cc(O)c12` [myricetin], the highest nontoxic dose in data set [2] (SVG-A cells) and in data set [3] (NHA cells) was 10 µM throughout. The IC50 amounted to 8.07 µM in [4] and 4.47 µM in data set [5]. The “inhibition of JCPyV infection” value was “effective only when given 2 h before infection or at the time of infection” in [6] and “lost by 2 h post-infection” in [7] (10 µM). In addition, the “inhibition of viral spread” value in [8] was “no significant reduction in viral spread compared to DMSO control”; in data set [9] (10 µM added 24 h post-infection), “without effect”.
